According to US20210363152A1, “AMINOAZINE AMIDES” (Hoffmann-La Roche Inc., priority 2018, published 2021):

molecular target: T1, Autotaxin enzyme (ATX) (Homo sapiens, UniProt Q13822); test: In vitro ATX assay (enzymatic ATX inhibition, LPC 14:0 substrate, choline oxidase/HRP absorbance readout); type: biochemical; conditions: 0.3 mM LPC 14:0, 37° C., 4 hours, absorbance 555 nm
T1 construct: purchased Echelon Biosciences, Inc. E-4000
In short: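 Human ATX (10 ng/mL as added) in pH 9.0 Tris buffer with NaCl, MgCl2, CoCl2 and Triton X-100 was preincubated with compound for 15 min at 37 °C. LPC 14:0 (0.3 mM final) was then hydrolysed for 4 h at 37 °C. Released choline was detected by choline oxidase/HRP with 4-AAP/TOOS, read after 15 min RT as absorbance at 555 nm, giving banded IC50 values.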

Row | IC50 [nM] | SMILES
1 | ≥ 1000 | CS(=O)(=O)c1cc(CNc2ncc(C(=O)N3CCC34COC4)cn2)cc(OC(F)(F)F)c1 [Example 137, (2-((3-(Methylsulfonyl)-5-(trifluoromethoxy)benzyl)amino)pyrimidin-5-yl)(6-oxa-1-azaspiro[3.3]heptan-1-yl)methanone]
2 | < 100 | CN1CC2(CCN2C(=O)c2cnc(NCc3cc(OC(F)(F)F)cc(C4CC4)c3)nc2)C1 [Example 142, (2-((3-Cyclopropyl-5-(trifluoromethoxy)benzyl)amino)pyrimidin-5-yl)(6-methyl-1,6-diazaspiro[3.3]heptan-1-yl)methanone]
3 | ≥ 1000 | O=C(c1cnc(NCc2cccc(OC(F)(F)F)c2)nc1)N1CC2(COC2)C1 [Example 3]
4 | 100 to 1000 | N#Cc1cc(CNc2ncc(C(=O)N3CCC34COC4)cn2)cc(OC(F)(F)F)c1 [Example 139, 3-(((5-(6-Oxa-1-azaspiro[3.3]heptane-1-carbonyl)pyrimidin-2-yl)amino)methyl)-5-(trifluoromethoxy)benzonitrile]
5 | < 100 | CC(C)Oc1cc(CNc2ncc(C(=O)N3CCC34COC4)cn2)cc(OC(C)C)c1 [Example 52]
6 | < 100 | CC(C)c1cc(CNc2ncc(C(=O)N3CCC34COC4)cn2)cc(OC(F)(F)F)c1 [Example 1, (2-((3-Isopropyl-5-(trifluoromethoxy)benzyl)amino)pyrimidin-5-yl) (6-oxa-1-azaspiro[3.3]heptan-1-yl)methanone]
7 | < 100 | O=C(c1cnc(NCc2cc(OC(F)(F)F)cc(C3CC3)c2)nc1)N1CCC12CCCOC2 (stereo not shown) [Example 108, (2-((3-cyclopropyl-5-(trifluoromethoxy)benzyl)ami-no)pyrimidin-5-yl)(6-oxa-1-azaspiro[3.5]nonan-1-yl)-methanone]
8 | < 100 | CN1CC2(CCCN2C(=O)c2cnc(NCc3cc(OC(F)(F)F)cc(C4CC4)c3)nc2)C1 [Example 157, (2-((3-Cyclopropyl-5-(trifluoromethoxy)benzyl)amino)pyrimidin-5-yl)(2-methyl-2,5-diazaspiro[3.4]octan-5-yl)methanone]
9 | < 100 | CCCc1cc(CNc2ncc(C(=O)N3CCC34COC4)cn2)cc(OC(C)C)c1 [Example 39]
10 | 100 to 1000 | O=C(c1cnc(NCc2cc(Cl)ccc2Cl)nc1)N1CCC12COC2 [Example 54]
11 | 100 to 1000 | CCOc1ccc2c(c1)CC(Nc1ncc(C(=O)N3CCC34COC4)cn1)C2 (stereo not shown) [Example 162, (2-((5-Ethoxy-2,3-dihydro-1H-inden-2-yl)amino)pyrimidin-5-yl)(6-oxa-1-azaspiro[3.3]heptan-1-yl)methanone]
12 | 100 to 1000 | O=C(c1cnc(NCc2cc(OC(F)(F)F)cc(C3CC3)c2)nc1)N1CC(O)C1 [Example 83, (2-((3-cyclopropyl-5-(trifluoromethoxy)benzyl)ami-no)pyrimidin-5-yl)(3-hydroxyazetidin-1-yl)-methanone]
13 | < 100 | CC1(C)CCN1C(=O)c1cnc(NCc2cc(OC(F)(F)F)cc(C3CC3)c2)nc1 [Example 89, (2-((3-cyclopropyl-5-(trifluoromethoxy)benzyl)ami-no)pyrimidin-5-yl)(2,2-dimethylazetidin-1-yl)methanone]
14 | < 100 | O=C(c1cnc(NCc2cc(OC(F)(F)F)cc(C3CC3)c2)nc1)N1CCC1C(F)F (stereo not shown) [Example 113, (2-((3-cyclopropyl-5-(trifluoromethoxy)benzyl)ami-no)pyrimidin-5-yl)(2-(difluoromethyl)azetidin-1-yl)methanone]
15 | < 100 | O=C(c1cnc(NCc2cc(OC(F)(F)F)cc(C3CC3)c2)nc1)N1CCC12CCOC2 (single isomer, unassigned) [Example 116, (2-((3-Cyclopropyl-5-(trifluoromethoxy)-benzyl)amino)pyrimidin-5-yl)(6-oxa-1-azaspiro[3.4]octan-1-yl) methanone]
16 | < 100 | O=C(c1cnc(N[C@@H]2Cc3ccc(Br)cc3C2)nc1)N1CCC12COC2 [Example 62]
17 | ≥ 1000 | CC(Nc1ncc(C(=O)N2CCC23COC3)cn1)c1cccc(OC(F)(F)F)c1 (stereo not shown) [Example 13]
18 | < 100 | O=C(c1ccc(NCc2cc(OC(F)(F)F)cc(C3CC3)c2)nc1)N1CCC12COC2 [Example 77, (6-((3-Cyclopropyl-5-(trifluoromethoxy)benzyl)amino)pyridin-3-yl)(6-oxa-1-azaspiro[3.3]heptan-1-yl)methanone]
19 | 100 to 1000 | O=C(c1cnc(NCc2cccc(OC(F)(F)F)c2)nc1)N1CCC12COC2 [Example 2]
20 | < 100 | CCOc1cc(CNc2ncc(C(=O)N3CCC34COC4)cn2)cc(OC(C)C)c1 [Example 159, (2-((3-Ethoxy-5-isopropoxybenzyl)amino)pyrimidin-5-yl) (6-oxa-1-azaspiro[3.3]heptan-1-yl)methanone]

Further lines, the compound ahead of its results:

Row | SMILES | IC50 [nM]
21 | CC(C)(O)[C@@H]1CCN1C(=O)c1cnc(N[C@@H]2Cc3ccc(Cl)cc3C2)nc1 [Example 135] | < 100
22 | CC(C)c1cc(CNc2cnc(C(=O)N3CCC3)cn2)cc(OC(F)(F)F)c1 [Example 74, Azetidin-1-yl(5-((3-isopropyl-5-(trifluoromethoxy)benzyl)amino)pyrazin-2-yl)methanone] | 100 to 1000
23 | CC1CC(C)N1C(=O)c1cnc(NCc2cc(OC(F)(F)F)cc(C3CC3)c2)nc1 (single isomer, unassigned) [Example 118, (2-((3-Cyclopropyl-5-(trifluoromethoxy)-benzyl)amino)pyrimidin-5-yl)(2,4-dimethylazetidin-1-yl)methanone] | < 100
24 | CC(C)(O)C1CCN1C(=O)c1cnc(NCc2cc(C3CC3)cc(C3CC3)c2)nc1 (stereo not shown) [Example 65] | < 100
25 | O=C(c1cnc(NC2Cc3ccccc3C2)nc1)N1CCC1 [Example 8] | 100 to 1000
26 | CCOc1cc(CNc2ncc(C(=O)N3CCC3C(C)(C)O)cn2)cc(OC(C)C)c1 (stereo not shown) [Example 160, (2-((3-Ethoxy-5-isopropoxybenzyl)amino)pyrimidin-5-yl) (2-(2-hydroxypropan-2-yl)azetidin-1-yl)methanone] | < 100
27 | CC(C)Oc1cc(CNc2ncc(C(=O)N3CCC3C(C)(C)O)cn2)cc(C2CC2)c1 (stereo not shown) [Example 59] | < 100
28 | CN1CCC2(CC1)CCN2C(=O)c1cnc(NC2Cc3ccc(Cl)cc3C2)nc1 (stereo not shown) [Example 40] | < 100
29 | CC(C)(O)[C@H]1CCN1C(=O)c1cnc(N[C@@H]2Cc3ccc(Cl)cc3C2)nc1 [Example 136, (2-(((R)-5-Chloro-2,3-dihydro-1H-inden-2-yl)amino)pyrimidin-5-yl) ((R)-2-(2-hydroxypropan-2-yl)azetidin-1-yl)methanone] | < 100
30 | O=C(c1cnc(NC2Cc3ccc(Cl)cc3C2)nc1)N1CCCC12COC2 (stereo not shown) [Example 46] | < 100
31 | O=C(c1cnc(NCc2cc(OC(F)(F)F)cc(C3CC3)c2)nc1)N1CCC1C(F)(F)F (stereo not shown) [Example 114, (2-((3-cyclopropyl-5-(trifluoromethoxy)benzyl)ami-no)pyrimidin-5-yl)(2-(trifluoromethyl)azetidin-1-yl)methanone] | 100 to 1000
32 | CC1CC(C)N1C(=O)c1cnc(NCc2cc(OC(F)(F)F)cc(C3CC3)c2)nc1 (stereo not shown) [Example 93, (2-((3-cyclopropyl-5-(trifluoromethoxy)benzyl)ami-no)pyrimidin-5-yl)(2,4-dimethylazetidin-1-yl)methanone] | < 100
33 | CC1CCN1C(=O)c1cnc(NCc2cc(C(F)(F)F)cc(C(F)(F)F)c2)nc1 (stereo not shown) [Example 9] | 100 to 1000
34 | N#Cc1ccc2c(c1)CC(Nc1ncc(C(=O)N3CCC34COC4)cn1)C2 (stereo not shown) [Example 34] | 100 to 1000
